Measurements taken from ChEMBL document CHEMBL5724558, “Image-based profiling of drug vulnerabilities in CRC organoids” (2024).
Values joined by “and” are separate entries in the source; they are usually repeats but may differ in a detail not shown here. Equal values may be shown once.

What was measured:
Format in all cases: functional, Homo sapiens
Parameters in all cases: dose or concentration left out as unconfirmed
Colon cancer organoid [1] = experiment: (§1) Image-based profiling of donated chemical probes and chemogenomic kinase set in O06 CRC organoid. Image analysis is performed on the sum area metric, and the data were normalized to the DMSO control. After imaging the organoid viability is measured using the OneGloEX Luciferase Assay System. The normalized viability data and sum area are reported.
Colon cancer organoid [2] = experiment: as §1, with “O09” for “O06”
Colon cancer organoid [3] = experiment: as §1, with “O21” for “O06”

| Compound | Cell Viability (Colon cancer organoid [1]; Replication number 1) | Cell Viability (Colon cancer organoid [1]; Replication number 2) | Cell Viability (Colon cancer organoid [2]; Replication number 1) | Cell Viability (Colon cancer organoid [2]; Replication number 2) | Cell Viability (Colon cancer organoid [3]; Replication number 1) | Cell Viability (Colon cancer organoid [3]; Replication number 2) |
| --- | --- | --- | --- | --- | --- | --- |
| C[C@H](NC(=O)Nc1cc2[nH]ncc2c(CO)n1)c1ccccn1 [ERKi-NC] | 123.043% and 110.304% | 54.2126% and 97.1276% | 84.2492% and 86.249% | 90.2054% and 105.732% | 112.403% and 96.6365% | 96.9008% and 86.2245% |
| CC(=O)N1CCC(c2ccc(C(=O)NC(=N)N)cc2C(F)(F)F)CC1 [BI 9627] | 92.5077% and 96.2529% | 95.2505% and 62.3038% | 138.648% and 103.929% | 116.481% and 107.777% | 89.2518% and 118.176% | 98.5958% and 100.51% |
| CC(C)(O)[C@H](F)CN1Cc2cc(NC(=O)c3cnn4cccnc34)c(N3CCOCC3)cc2C1=O | 109.705% and 119.757% | 130.929% and 135.992% | 71.2325% and 98.662% | 94.649% and 96.9469% | 101.018% and 118.952% | 110.562% and 109.619% |
| CC(C)(C#Cc1ccc(NC(=O)COc2ccccc2C(=O)c2ccccc2)c(Cl)c1)C(=O)O [BI 2439] | 94.1417% and 101.057% | 69.7928% and 91.0899% | 115.901% and 103.937% | 114.023% and 92.0585% | 94.7659% and 113.344% | 112.811% and 119.578% |
| CC(C)NC(=O)N1CC[C@H](NC2=Nc3cc(F)ccc3N(CC(F)F)c3ccc(Cl)cc32)C1 | 76.3577% and 106.595% | 67.4805% and 91.0899% | 65.8757% and 85.8718% | 77.8958% and 74.4882% | 89.5308% and 79.3405% | 112.883% and 89.5415% |
| CNc1cc(Oc2cc(C(=O)Nc3cc(N4CCN(C)CC4)cc(C(F)(F)F)c3)ccc2C)ncn1 | 159.785% and 126.415% | 134.323% and 110.437% | 67.5725% and 54.8543% | 89.2328% and 78.5558% | 91.6844% and 105.366% | 86.288% and 119.755% |
| COc1ccc2c(c1)O[C@H](c1ccc(OC)c(OC)c1)C[C@@H]2NC(=O)C1(c2ccc3c(c2)OC(F)(F)O3)CC1 [A-1596584] | 59.7741% and 88.9069% | 99.5304% and 111.725% | 121.374% and 104.664% | 90.4474% and 94.7661% | 106.5% and 117.861% | 103.505% and 102.481% |
| COc1cccc2c1C(=O)c1c(O)c3c(c(O)c1C2=O)CC(O)(C(=O)CO)CC3OC1CC(N)C(O)C(C)O1.Cl (stereo not drawn) | 10.231% and 27.4494% | – | 17.7261% | 21.2234% | 24.67% and 46.8716% | 19.9524% and 41.0435% |
| CN1CCN(C(=O)C(C)(C)c2ccc(C(=O)Nc3cn4cc(-c5ccncc5)ccc4n3)cc2)CC1 [T3-CLK] | 42.3595% and 97.4239% | 42.5998% and 77.939% | 41.227% and 51.6061% | 31.6537% and 31.5444% | 57.8975% and 103.622% | 54.6627% and 104.082% |
| O=C(NCc1ncc(C(F)(F)F)cc1Cl)c1ccc2c(c1)C1(CCS(=O)(=O)CC1)[C@@H](C1CC1)N2S(=O)(=O)c1ccc(F)cc1 [BAY-786] | 93.4369% and 85.4801% | 92.4233% and 87.6518% | 144.169% and 104.407% | 144.169% and 145.747% | 89.1117% and 93.1436% | 89.1705% and 87.7551% |
| CC(=O)c1cc(-c2cc(C(=O)NC3CC3)ccc2C)c2ncccn12 | 115.093% and 116.94% | 131.559% and 119.251% | 163.828% and 97.8362% | 113.773% and 107.19% | 100.074% and 118.158% | 94.4985% and 97.1957% |
| O=C(Nc1nc2cccc(-c3ccc(CN4CCS(=O)(=O)CC4)cc3)n2n1)C1CC1 [FILGOTINIB] | 93.5364% and 106.162% | 112.473% and 105.09% | 112.727% and 81.0348% | 92.6922% and 97.9922% | 108.054% and 94.216% | 115.207% and 111.119% |
| Cn1c(-c2csc(C3CCN(CC4=NC5N=CC=CC5N4)CC3)n2)nc2ccccc21 (stereo not drawn) [BAY-070] | 51.6449% and 96.9231% | 54.618% and 76.4056% | 60.3085% and 58.8971% | 70.2327% and 76.9231% | 109.219% and 99.8545% | 106.656% and 102.481% |
| C[C@@H]1CC(=O)Nc2cccc(-c3ccc4c(c3)c(-c3cnn(C)c3)nn4C)c2N1 | 59.3391% and 89.8792% | 80.6716% and 83.4041% | 75.8759% and 56.1051% | 135.457% and 81.8182% | 80.8439% and 121.097% | 82.2884% and 110.621% |
| CC1(C)C(N)=Nc2cc(OCCCN3Cc4ccc(OCCc5cn(CC(=O)N6CCC(CCN7CCCC7)CC6)nn5)cc4C3)c(OCC3CC3)cc21 | 159.496% and 131.919% | 138.652% and 115.905% | 116.392% and 79.0572% | 168.88% and 116.313% | 89.3796% and 92.2926% | 86.2982% and 98.2697% |
| CN(C)C(=O)c1ccc(-c2cc(C(=O)N[C@@H]3CCc4ccccc43)no2)cc1O | 75.5057% and 77.557% | 96.6364% and 86.0329% | 44.4352% and 76.507% | 55.2789% and 66.994% | 107.545% and 128.739% | 101.745% and 90.2148% |
| Cc1c(NC(=O)COc2ccc(Cl)cc2C(=O)c2cc(F)cc(C(F)(F)F)c2)ccc(C(=O)O)c1F [BI 2540] | 58.8741% and 96.3504% | 87.0416% and 104.656% | 121.956% and 104.432% | 133.179% and 113.341% | 96.7046% and 115.044% | 105.62% and 95.2087% |
| Cc1ccc(NC(=O)Nc2cc(C(F)(F)F)ccc2F)cc1Nc1ccc2c(c1)NC(=O)/C2=C\c1ccc[nH]1 | 171.109% and 157.262% | 144.83% and 120.438% | 128.92% and 93.5433% | 146.444% and 106.907% | 103.098% and 128.078% | 94.098% and 129.212% |
| O=C(NOC[C@H](O)CO)c1ccc(F)c(F)c1Nc1ccc(I)cc1F [MIRDAMETINIB] | 3.1671% and 12.2187% | 2.358% and 7.568% | 6.019% and 17.678% | 3.596% and 12.9307% | 22.725% and 32.892% | 19.7018% and 35.9842% |
